A short description of one series: in vitro. Here is the method: (§1) S1 and S1PS5 peptides derived from SOCS1 KIR domain (residues 53-68) conjugated with the cell penetrating sequences at N-terminal were synthesized by solid phase method following the Fmoc strategy, purified by preparative reverse phase-HPLC and lyophilized. Peptides were dissolved in 1% DMSO in saline solution (S1) and H2O (S1PS5), then filter-sterilized and stored at -80°C before use. For biodistribution studies, peptides were labelled with rhodamine or carboxytetramethylrhodamine (TAMRA) at N-terminal. For stability assays, peptides were incubated at 37°C with 25% foetal bovine serum (FBS). At selected times, 80 µL aliquots were taken, precipitated with 15% trichloroacetic acid, and further analysed by reverse phase HPLC with UV detector.

The conditions of series [1]: 24 hours post-injection. Here is the method: as §1
In the next series the test system is mouse VSMC. Briefly: cellular uptake of TAMRA-conjugated S1PS5 peptides (confocal microscopy). The series is classed as cell-based. The note with it: for degraded in cells: at 24 hours, TAMRA fluorescence intensity; for efficient uptake after: quantification of peptide internalization by TAMRA fluorescence intensity.

Where a SMILES comes first, the peptide text is derived from it. Bridges are numbered along the chain shown (N, C = ends). [ ]: non-standard residue; d: D form. The star is where a group is joined. 1Nal = N[C@@H](Cc1cccc2ccccc12)C(=O)O; Acm = CC(=O)NC*

The term share remaining denotes what is left of the initial amount, in per cent. Read a high share remaining as less turnover.

With `CC(=O)NCSC[C@@H]1NC(=O)[C@H]([C@@H](C)O)NC(=O)[C@@H](NC(=O)CNC(=O)CNC(=O)[C@H](CCC(N)=O)NC(=O)[C@@H]2CCCN2C(=O)[C@@H]2CCCN2C(=O)[C@H](CCCNC(=N)N)NC(=O)[C@H](CCCNC(=N)N)NC(=O)[C@H](CCCNC(=N)N)NC(=O)[C@H](CCC(N)=O)NC(=O)[C@H](CCCNC(=N)N)NC(=O)[C@H](CCCNC(=N)N)NC(=O)[C@H](CCCCN)NC(=O)[C@H](CCCCN)NC(=O)[C@H](CCCNC(=N)N)NC(=O)CN)CC(=O)NCCCC[C@@H](C(=O)N[C@@H](Cc2c[nH]cn2)C(=O)O)NC(=O)[C@H](CCCNC(=N)N)NC(=O)[C@H](Cc2cccc3ccccc23)NC(=O)[C@H]([C@@H](C)O)NC(=O)[C@H](CCC(N)=O)NC(=O)[C@H](CCCNC(=N)N)NC1=O` [internal cyclic S1PS5 Nal1, GRKKRRQRRRPPQGGDTCAcmRQTNal1RKH] (H-GRKKRRQRRRPPQGGDTC(Acm)RQT[1Nal]RKH-OH; lactam 16-24), in “in vitro” (25% foetal bovine serum), the metabolised at 20 h was roughly 20% and the amount remaining at 42 h was roughly 40%. Also, the “localization in aortic tissue (confocal analysis)” value in series [1] is “detected”. Moreover, in the series with mouse VSMC, the degraded in cells is reported as 40% and the efficient uptake after was roughly 2 h.
Consider `CC(=O)NCSC[C@@H]1NC(=O)[C@H]([C@@H](C)O)NC(=O)[C@@H](NC(=O)CNC(=O)CNC(=O)[C@H](CCC(N)=O)NC(=O)[C@@H]2CCCN2C(=O)[C@@H]2CCCN2C(=O)[C@H](CCCNC(=N)N)NC(=O)[C@H](CCCNC(=N)N)NC(=O)[C@H](CCCNC(=N)N)NC(=O)[C@H](CCC(N)=O)NC(=O)[C@H](CCCNC(=N)N)NC(=O)[C@H](CCCNC(=N)N)NC(=O)[C@H](CCCCN)NC(=O)[C@H](CCCCN)NC(=O)[C@H](CCCNC(=N)N)NC(=O)CN)CC(=O)NCCCC[C@@H](C(=O)N[C@@H](Cc2c[nH]cn2)C(=O)O)NC(=O)[C@H](CCCNC(=N)N)NC(=O)[C@H](Cc2ccccc2)NC(=O)[C@H]([C@@H](C)O)NC(=O)[C@H](CCC(N)=O)NC(=O)[C@H](CCCNC(=N)N)NC1=O` [internal cyclic S1PS5, GRKKRRQRRRPPQGGDTCAcmRQTFRKH] (H-GRKKRRQRRRPPQGGDTC(Acm)RQTFRKH-OH; lactam 16-24), for which the metabolised at 20 h in the series “in vitro” (25% foetal bovine serum) is roughly 40%. In addition, in the series on mouse VSMC, the degraded in cells entry is given as “almost completely degraded” and the efficient uptake after was roughly 2 h.
Consider `CC(=O)NCSC[C@H](NC(=O)[C@@H](NC(=O)[C@H](CC(=O)O)NC(=O)CNC(=O)CNC(=O)[C@H](CCC(N)=O)NC(=O)[C@@H]1CCCN1C(=O)[C@@H]1CCCN1C(=O)[C@H](CCCNC(=N)N)NC(=O)[C@H](CCCNC(=N)N)NC(=O)[C@H](CCCNC(=N)N)NC(=O)[C@H](CCC(N)=O)NC(=O)[C@H](CCCNC(=N)N)NC(=O)[C@H](CCCNC(=N)N)NC(=O)[C@H](CCCCN)NC(=O)[C@H](CCCCN)NC(=O)[C@H](CCCNC(=N)N)NC(=O)CN)[C@@H](C)O)C(=O)N[C@@H](CCCNC(=N)N)C(=O)N[C@@H](CCC(N)=O)C(=O)N[C@H](C(=O)N[C@@H](Cc1ccccc1)C(=O)N[C@@H](CCCNC(=N)N)C(=O)N[C@@H](CO)C(=O)N[C@@H](Cc1c[nH]cn1)C(=O)O)[C@@H](C)O` [linear S1PS5, GRKKRRQRRRPPQGGDTCAcmRQTFRSH] (H-GRKKRRQRRRPPQGGDTC(Acm)RQTFRSH-OH), for which, in the series “in vitro” (25% FBS, 37°C, at 17-20 hours), the degradation rate came out at 40%.

The values are drawn from patent EP4000627A1, “TREATMENT OF ABDOMINAL AORTIC ANEURYSM AFTER ITS CLINICAL MANIFESTATION” (Fundacion Instituto De Investigacion Sanitaria Fundacion …, priority 2020, dated 2022).
